Measured values reported in patent publication US7462600B2, “Macrolides” (Pfizer Inc, priority 2004, dated 2008).
Values after ≈ are worked out from the molar mass of the structure shown. Where two headings read alike, the source gives them in different places.

How the values were obtained:
Format in all cases: cell-based
[1] = system: Streptococcus pyogenes 1079; assay: MIC, microtiter broth dilution (NCCLS M100-S14), S. pyogenes 1079 (ermB)
How it was run: (§1)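 Minimum inhibitory concentration by broth microdilution in trays (NCCLS M100-S14); starting stocks 40 mg/ml, DMSO.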

[2] = system: Streptococcus pneumoniae 1016; assay: MIC, microtiter broth dilution (NCCLS M100-S14), S. pneumoniae 1016 (susceptible)
How it was run: as §1

[3] = system: Streptococcus pneumoniae 1095; settings: microtiter broth dilution
How it was run: as §1

[4] = system: Streptococcus pneumoniae 1175; settings: microtiter broth dilution
How it was run: as §1

[5] = system: Haemophilus influenzae 1218; assay: MIC, microtiter broth dilution (NCCLS M100-S14), H. influenzae 1218 (susceptible)
How it was run: as §1

[6] = S. pneumoniae 1016 (susceptible)
[7] = H. influenzae 1218 (susceptible)

| Compound | MIC S. pyogenes 1079 ([1]; Streptococcus pyogenes 1079) [µg/mL] | MIC S. pneumo. 1016 ([2]; Streptococcus pneumoniae 1016) [µg/mL] | MIC S. pneumo. 1095 ([3]; Streptococcus pneumoniae 1095) [µg/mL] | MIC S. pneumo. 1175 ([4]; Streptococcus pneumoniae 1175) [µg/mL] | MIC H. influenzae 1218 ([5]; Haemophilus influenzae 1218) [µg/mL] | MIC S. pyogenes 1079 ([1]; S. pyogenes 1079 (ermB)) [µg/mL] | MIC S. pneumo. 1016 [2, 6] [µg/mL] | MIC S. pneumo. 1095 ([3]; S. pneumoniae 1095 (ermB)) [µg/mL] | MIC S. pneumo. 1175 ([4]; S. pneumoniae 1175 (mefA)) [µg/mL] | MIC H. influenzae 1218 [5, 7] [µg/mL] |
| --- | --- | --- | --- | --- | --- | --- | --- | --- | --- | --- |
| CCC1OC(=O)C(C)C(=O)C(C)C(OC2OC(C)CC(N(C)C)C2O)C(C)(OC)CC(C)C(=O)C(C)C2N(C3CN(Cc4ccncc4Br)C3)C(=O)OC12C (stereo not drawn) [Example 1.77, 3-descladinosyl-11,12-dideoxy-6-O-methyl-3-oxo-12,11-(oxycarbonyl-(1-(3-bromopyridine-4-methyl)-azetidin-3-yl)-imino)-erythromycin A] | 1 (≈ 1.19 µM) | <0.063 | <0.063 | <0.063 | 0.5 (≈ 0.597 µM) |  |  |  |  |  |
| CCC1OC(=O)C(C)C(=O)C(C)C(OC2OC(C)CC(N(C)C)C2O)C(C)(OC)CC(C)C(=O)C(C)C2N(C3CN(S(=O)(=O)c4ccc(-n5ccnc5)c(C#N)c4)C3)C(=O)OC12C (stereo not drawn) [Example 3.64] | 32 (≈ 35.6 µM) | <0.06 | <0.06 | <0.06 | 0.5 (≈ 0.556 µM) |  |  |  |  |  |
| CCC1OC(=O)C(C)C(=O)C(C)C(OC2OC(C)CC(N(C)C)C2O)C(C)(OC)CC(C)C(=O)C(C)C2N(C3CN(Cc4cccc5nc[nH]c45)C3)C(=O)OC12C (stereo not drawn) [Example 1.11, 3-descladinosyl-11,12-dideoxy-6-O-methyl-3-oxo-12,11-(oxycarbonyl-(1-((1H-benzoimidazol-7-yl)-methy)-azetidin-3-yl)-imino)-erythromycin A] | 4 (≈ 5.01 µM) | <0.06 | <0.06 | 0.5 (≈ 0.627 µM) | <0.06 |  |  |  |  |  |
| CCC1OC(=O)C(C)C(=O)C(C)C(OC2OC(C)CC(N(C)C)C2O)C(C)(OC)CC(C)C(=O)C(C)C2N(CC3CCCN3C(=O)c3ccc4[nH]ncc4c3)C(=O)OC12C (stereo not drawn) [10.32] |  |  |  |  |  | >64.00 | <0.06 | <0.06 | 0.5 (≈ 0.595 µM) | 1 (≈ 1.19 µM) |
| CCC1OC(=O)C(C)C(=O)C(C)C(OC2OC(C)CC(N(C)C)C2O)C(C)(OC)CC(C)C(=O)C(C)C2N(C3CN(Cc4c(OC)cnc5cccnc45)C3)C(=O)OC12C (stereo not drawn) [Example 1.101, 3-descladinosyl-11,12-dideoxy-6-O-methyl-3-oxo-12,11-(oxycarbonyl-(1-(3-methoxy-1,5-naphthyridine-4-methyl)-azetidin-3-yl)-imino)-erythromycin A] | 0.25 (≈ 0.298 µM) | <0.063 | 0.125 (≈ 0.149 µM) | <0.063 | 2 (≈ 2.38 µM) |  |  |  |  |  |
| CCC1OC(=O)C(C)C(=O)C(C)C(OC2OC(C)CC(N(C)C)C2O)C(C)(OC)CC(C)C(=O)C(C)C2N(C3CN(S(=O)(=O)c4ccc(-c5csnn5)cc4)C3)C(=O)OC12C (stereo not drawn) [Example 3.45, 3-descladinosyl-11,12-dideoxy-6-O-methyl-3-oxo-12,11-(oxycarbonyl-(1-(4-(1,2,3-thiadiazol-4-yl)benzenesulfonyl)-azetidin-3-yl)-imino)-erythromycin A] | 0.12 (≈ 0.135 µM) | <0.06 | <0.06 | <0.06 | 0.25 (≈ 0.28 µM) |  |  |  |  |  |
| CCC1OC(=O)C(C)C(=O)C(C)C(OC2OC(C)CC(N(C)C)C2O)C(C)(OC)CC(C)C(=O)C(C)C2N(C3CCN(S(=O)(=O)c4cccc5cnccc45)C3)C(=O)OC12C (stereo not drawn) [Example 9.08, isoquinoline-5-sulfonyl] |  |  |  |  |  | 16 (≈ 18.3 µM) | <0.06 | 4 (≈ 4.58 µM) | 0.12 (≈ 0.137 µM) | 0.25 (≈ 0.286 µM) |
| CCC1OC(=O)C(C)C(=O)C(C)C(OC2OC(C)CC(N(C)C)C2O)C(C)(OC)CC(C)C(=O)C(C)C2N(CC3CCCN3C(=O)c3cnn4ccccc34)C(=O)OC12C (stereo not drawn) [10.45] |  |  |  |  |  | >64.00 | <0.06 | <0.06 | <0.06 | 1 (≈ 1.19 µM) |
| CCC1OC(=O)C(C)(F)C(=O)C(C)C(OC2OC(C)CC(N(C)C)C2O)C(C)(OC)CC(C)C(=O)C(C)C2N(CC3CCCN3C(=O)c3cc4ccccn4n3)C(=O)OC12C (stereo not drawn) [10.28] |  |  |  |  |  | 16 (≈ 18.6 µM) | <0.06 | <0.06 | 0.12 (≈ 0.14 µM) | 1 (≈ 1.17 µM) |
| CCC1OC(=O)C(C)C(=O)C(C)C(OC2OC(C)CC(N(C)C)C2O)C(C)(OC)CC(C)C(=O)C(C)C2N(C3CN(Cc4ccccn4)C3)C(=O)OC12C (stereo not drawn) [Example 1.02, (pyridin-2-yl)methyl] | >64.00 | <0.06 | 0.12 (≈ 0.158 µM) | 0.12 (≈ 0.158 µM) | 0.25 (≈ 0.329 µM) |  |  |  |  |  |
| CCC1OC(=O)C(C)C(=O)C(C)C(OC2OC(C)CC(N(C)C)C2O)C(C)(OC)CC(C)C(=O)C(C)C2N(C3CN(Cc4c(C)cnc5ccccc45)C3)C(=O)OC12C (stereo not drawn) [Example 1.98, 3-descladinosyl-11,12-dideoxy-6-O-methyl-3-oxo-12,11-(oxycarbonyl-(1-(3-methylquinoline-4-methyl)-azetidin-3-yl)-imino)-erythromycin A] | 0.25 (≈ 0.304 µM) | <0.063 | <0.063 | <0.063 | 2 (≈ 2.43 µM) |  |  |  |  |  |
| CC[C@H]1OC(=O)[C@H](C)C(=O)[C@H](C)[C@@H](O[C@@H]2O[C@H](C)C[C@H](N(C)C)[C@H]2O)[C@](C)(OC)C[C@@H](C)C(=O)[C@H](C)[C@H]2N(C3CN([C@H](C)c4ccnc5ncccc45)C3)C(=O)O[C@]12C [Example 1.25, 3-descladinosyl-11,12-dideoxy-6-O-methyl-3-oxo-12,11-(oxycarbonyl-(1-(1R-(1,8-naphthyridin4-yl)-ethyl)-azetidin-3-yl)-imino)-erythromycin A] | 1 (≈ 1.21 µM) | <0.06 | <0.06 | 0.25 (≈ 0.303 µM) | 0.5 (≈ 0.607 µM) |  |  |  |  |  |
| CCC1OC(=O)C(C)C(=O)C(C)C(OC2OC(C)CC(N(C)C)C2O)C(C)(OC)CC(C)C(=O)C(C)C2N(CC3CCN(Cc4ccc(OC)nc4)CC3)C(=O)OC12C (stereo not drawn) [15.04] |  |  |  |  |  | >64.00 | <0.06 | >64.00 | 0.5 (≈ 0.602 µM) | 16 (≈ 19.3 µM) |
| CCC1OC(=O)C(C)C(=O)C(C)C(OC2OC(C)CC(N(C)C)C2O)C(C)(OC)CC(C)C(=O)C(C)C2N(C3CN(Cc4ccc5c(c4)CS(=O)(=O)C5)C3)C(=O)OC12C (stereo not drawn) [Example 1.94] | 4 (≈ 4.72 µM) | <0.063 | 0.5 (≈ 0.59 µM) | 0.25 (≈ 0.295 µM) | 1 (≈ 1.18 µM) |  |  |  |  |  |
| CCC1OC(=O)C(C)C(=O)C(C)C(OC2OC(C)CC(N(C)C)C2O)C(C)(OC)CC(C)C(=O)C(C)C2N(CC3CN(Cc4n[nH]c5cc(Cl)ccc45)C3)C(=O)OC12C (stereo not drawn) [4.23] | 16 (≈ 18.9 µM) | <0.06 | 4 (≈ 4.73 µM) | 0.12 (≈ 0.142 µM) | <0.06 |  |  |  |  |  |
| CCC1OC(=O)C(C)C(=O)C(C)C(OC2OC(C)CC(N(C)C)C2O)C(C)(OC)CC(C)C(=O)C(C)C2N(C3CN(Cc4cn[nH]c4)C3)C(=O)OC12C (stereo not drawn) [Example 1.19, (1H-pyrazol-4-yl)methyl] | >64.00 | <0.06 | 0.12 (≈ 0.16 µM) | 4 (≈ 5.35 µM) | 0.5 (≈ 0.669 µM) |  |  |  |  |  |
| CCC1OC(=O)C(C)C(=O)C(C)C(OC2OC(C)CC(N(C)C)C2O)C(C)(OC)CC(C)C(=O)C(C)C2N(CC3C4CN(C(=O)OC(C)(C)C)CC43)C(=O)OC12C (stereo not drawn) [16.01] |  |  |  |  |  | >100.00 | 0.25 (≈ 0.309 µM) | 50 (≈ 61.9 µM) | 25 (≈ 30.9 µM) | 1.56 (≈ 1.93 µM) |
| CCC1OC(=O)C(C)C(=O)C(C)C(OC2OC(C)CC(N(C)C)C2O)C(C)(OC)CC(C)C(=O)C(C)C2N(C3CN(S(=O)(=O)c4ccc(-n5cccn5)c(C#N)c4)C3)C(=O)OC12C (stereo not drawn) [Example 3.50] | 0.25 (≈ 0.278 µM) | <0.06 | <0.06 | <0.06 | 1 (≈ 1.11 µM) |  |  |  |  |  |
| CCC1OC(=O)C(C)C(=O)C(C)C(OC2OC(C)CC(N(C)C)C2O)C(C)(OC)CC(C)C(=O)C(C)C2N(C3CN(S(=O)(=O)c4cnc5ccccn45)C3)C(=O)OC12C (stereo not drawn) [Example 3.15, 3-descladinosyl-11,12-dideoxy-6-O-methyl-3-oxo-12,11-(oxycarbonyl-(1-(H-imidazo[1,2-a]pyridine-3-sulfonyl)-azetidin-3-yl)-imino)-erythromycin A] | 1 (≈ 1.18 µM) | <0.06 | <0.06 | <0.06 | 0.25 (≈ 0.295 µM) |  |  |  |  |  |
| CCC1OC(=O)C(C)C(=O)C(C)C(OC2OC(C)CC(N(C)C)C2O)C(C)(OC)CC(C)C(=O)C(C)C2N(CC3CCN(C(=O)c4cc5ccccn5n4)C3)C(=O)OC12C (stereo not drawn) [11.16] |  |  |  |  |  | >64.00 | <0.06 | 8 (≈ 9.52 µM) | 0.5 (≈ 0.595 µM) | 8 (≈ 9.52 µM) |
| CCC1OC(=O)C(C)C(=O)C(C)C(OC2OC(C)CC(N(C)C)C2O)C(C)(OC)CC(C)C(=O)C(C)C2N(CC3CCCN3C(=O)c3cccc4[nH]cnc34)C(=O)OC12C (stereo not drawn) [10.52] |  |  |  |  |  | 64 (≈ 76.2 µM) | <0.06 | <0.06 | <0.06 | 0.25 (≈ 0.298 µM) |
